Measured values from US8173632B2, “Process for the modification of the solid state of a compound and co-amorphous compositions produced with same” (priority 2007, dated 2012).
≈ marks a conversion by molar mass, not a printed value. Entries after “also recorded” stand apart in the source; their conditions may differ.

Legend:
[1] = literature reports; temperature as stated in value; cited from earlier work
[2] = room temperature; cited from earlier work
[3] = Room temperature storage stability of the non-crystalline / co-amorphous form against recrystallization; format: physicochemical; settings: for stability of the non-crystalline / co-amorphous form, tendency to recrystallization (in words): room temperature storage
Description: The present invention is directed to stable crystalline and non-crystalline forms of organic compositions, particularly pharmaceutical compositions, that are stable at room temperature and to processes for producing the stable crystalline and non-crystalline forms with the process of the invention.
Within an hour of the evaporation, the system stabilized with 80 percent or more of the mass of the sample cured to a clear non-crystalline form rather than a crystalline form.
After the 6 months of storage, the laser treated aspirin was studied by PXRD.
(§1) Subsequent tests with the protocol of Example 1b were repeated with the order of long and short wavelengths reversed, i.e., short wavelength followed by long wavelength cycled sequenced laser treatment. This protocol also produced up to 90 percent yields of room temperature stable non-crystalline glass aspirin, which remained stable at room temperature for over 23 months. The Petri dish containing such a sample of non-crystalline aspirin was placed on edge for a period of about six weeks.
The glass cover was removed and the sample was allowed to desolvate in an open container through slow evaporation at about 20° C. and a relative humidity of 31 percent. Before the solvent had fully evaporated, the sample developed a few small areas of apparent crystallization that were surrounded with marker lines. As the evaporation continued, no significant extension of the crystal fronts was observed.

[4] = Petri dish with non-crystalline aspirin placed on edge (flow test); format: physicochemical; settings: Petri dish placed on edge for about six weeks
Description: as §1

[5] = bulk form, same mass; cited from earlier work

| Structure (SMILES) | stability of prior art aspirin forms against conversion / crystallization (in words) [1] | stability of the non-crystalline / co-amorphous form, tendency to recrystallization (in words) [3] | also measured |
| --- | --- | --- | --- |
| CC(=O)Oc1ccccc1C(=O)O [Aspirin Form II, aspirin] | kinetically stable at 100 K (−173° C.), but converts back to Form I at ambient conditions | – | – |
| CC(=O)Oc1ccccc1C(=O)O [amorphous aspirin, aspirin] | converts rapidly to the crystalline Form I | – | – |
| CC(=O)Oc1ccccc1C(=O)O [crystalline aspirin, Aspirin] | – | – | solubility in water [2]: 3.33 mg/mL (≈ 18.5 mM) |
| CC(=O)Oc1ccccc1C(=O)O [non-crystalline aspirin, Aspirin] | – | remain stable at room temperature for at least up to about a year; also recorded: stable at room temperature once the solvent had evaporated; also recorded: No crystallization has been observed in similarly prepared samples following an additional six months of storage | period of storage with no change in appearance of the sample ([3]; room temperature of about 18° to 22° C. and about 30 to 40 percent humidity, Example 1b): over 6 months; period the non-crystalline glass remained stable ([3]; room temperature, Example 1c, short wavelength followed by long wavelength): over 23 months; flowing of the sample [4]: No flowing of the sample was observed |
| O=C1[C@H](CC[C@H](O)c2ccc(F)cc2)[C@@H](c2ccc(O)cc2)N1c1ccc(F)cc1 [non-crystalline ezetimibe, Ezetimibe] | – | remained stable for five weeks; also recorded: resisted crystallization even when adjacent to an organizing crystal front | – |
| CC(=O)Oc1ccccc1C(=O)O [vitreous aspirin, aspirin] | did not crystallize for four to five days at 298K | – | dissolution of bulk vitreous aspirin compared with powdered crystals [5]: dissolve more slowly than the same mass of finely powdered crystals of aspirin |
